The text below walks through data of PubChem BioAssay (NCI).

Structures are written as SMILES.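 Grown in 96-well plates, cells were treated for 48 hours with each compound at five concentrations. Insufficient inhibition: endpoint recorded as highest concentration tested. TGI denotes the concentration required for complete inhibition of growth.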 Where only a bound is given, the exact number is not on record here.

What all share (test): NCI tumour cell line growth inhibition, 48 h
The subject of assay [1] is NCI-H460 lung.
Assay [2] deals with SNB-75 CNS.
Assay [3] relates to IGROV1 ovarian.
Assay [4] concerns TK-10 renal.
For assay [5], the system named is SW-620 colon.
Assay [6] has as its system SF-539 CNS.
For assay [7], the system named is NCI-H522 lung.
For assay [8], the system named is LOX IMVI melanoma.
For assay [9], the system named is MDA-N.
Assay [10] concerns A498 renal.
Assay [11] relates to PC-3 prostate.
Assay [12] relates to HCC-2998 colon.

In the case of `O=C(O)Cc1ccc([N+](=O)[O-])cc1[N+](=O)[O-]`, the TGI in assay [1], in assay [2], in assay [3], in assay [4], in [5] and in assay [6] was over 100 µM each time. Also, the TGI in assay [7], in assay [8], in assay [9], in assay [10] and in [11] was over 100 µM in each case.
For `O=C1/C(=C\c2ccc(Cl)cc2Cl)Sc2scc(-c3ccc(O)c(O)c3)[n+]21`, the TGI was 40.9 µM in assay [12]; 48.2 µM in assay [1]; 53.4 µM in [2]; 50.7 µM in [3]; 38.8 µM in assay [4]; 29.7 µM in [5]. Also, the TGI in assay [6] amounted to 45.2 µM; in assay [7], 39.4 µM; in assay [8] it was 40.8 µM; in assay [9], 60.1 µM; in assay [11], 36.4 µM.
As to `Cc1[nH]c(=O)nc2sc(=NC3CCCCC3)n(C3CCCCC3)c(=O)c12`, the TGI in assay [12], in [2], in assay [3], in assay [4], in [5] and in assay [6] was over 100 µM each time. The TGI in [7], in assay [8], in assay [9], in assay [10] and in assay [11] was over 100 µM each time.
With `COC(=O)CC(C)(NS(=O)c1ccc(C)cc1)c1ccccc1` (stereo unspecified), the TGI in [12], in assay [1], in assay [3], in assay [4], in assay [5] and in assay [6] was over 100 µM in each case. Besides, the TGI in [7], in assay [8], in assay [9], in assay [10] and in assay [11] was over 100 µM in each case.
As for `Cc1cn(C2OC(CO[Si](C)(C)C(C)(C)C)C(N(C)O[Si](C)(C)C(C)(C)C)C2[Se]c2ccccc2)c(=O)[nH]c1=O` (stereo unspecified), the TGI was 0.491 µM in assay [12]; 21.4 µM in assay [2]; 28.2 µM in [3]; 27.1 µM in assay [4]; over 100 µM in assay [5]; 11.6 µM in [7]. The TGI in [8] is 10.2 µM; in assay [9] it was over 100 µM; in assay [10] it was 49.5 µM; in assay [11], 34 µM.
Turning to `COc1ccc2oc3c(C)cc4c(OC)nnc(OC)c4c3c2c1`, the TGI in [12] was over 100 µM; in assay [1], over 100 µM; in assay [2] it was over 100 µM; in [4], 91.9 µM; in [5] it was over 100 µM; in [6] it was over 100 µM. Moreover, the TGI in assay [7], in assay [8], in assay [9], in assay [10] and in [11] was over 100 µM throughout.
With `Cc1ccc(S[C@@H](C)[C@@](O)(CF)CN(Cc2ccccc2)C(=O)C(F)(F)F)cc1`, the TGI in assay [12] was 41.5 µM; in assay [1], 36.9 µM; in [3], over 100 µM; in assay [4], over 100 µM; in assay [5], 75.2 µM; in [7], over 100 µM. In addition, the TGI is over 100 µM in assay [8], 62.7 µM in [9], 29.7 µM in assay [10] and 94.3 µM in assay [11].
As to `N#CSC#CCCC#CSC#N`, the TGI amounted to 34.3 µM in [12]; 48.4 µM in assay [1]; 45.1 µM in assay [3]; 33.1 µM in assay [4]; 38.7 µM in [5]; 41.2 µM in [6]. Also, the TGI in [7] came to 13.6 µM; in [8] it was 40.5 µM; in [9] it was 34.8 µM; in [10], 37.7 µM; in assay [11] it was 48.3 µM.
With `Nc1ncc2c(n1)-c1ccccc1OC2N1CCCCC1` (stereo unspecified), the TGI in assay [1], in assay [2], in assay [3], in assay [4], in [5] and in assay [6] was over 100 µM each time. Besides, the TGI in assay [7], in assay [8], in assay [9], in assay [10] and in assay [11] was over 100 µM each time.
For `O=C1c2sc(-c3ccc(Cl)cc3)cc2-n2cccc21`, the TGI in assay [12], in assay [1], in [2], in assay [3], in assay [4] and in assay [5] was over 100 µM each time. For the same molecule, the TGI in assay [7], in assay [8], in assay [9], in assay [10] and in assay [11] was over 100 µM in each case.
As to `CCOC(=O)c1ccc(-c2cc(C)no2)[nH]1`, the TGI in assay [1], in assay [2], in assay [3], in assay [4], in assay [5] and in assay [6] was over 100 µM each time. In addition, the TGI in assay [7], in [8], in assay [9], in assay [10] and in [11] was over 100 µM in each case.
As to `C=CCNC(=S)N/C=C(\C#N)C(N)=O`, the TGI in assay [12], in assay [1], in assay [2], in assay [3], in assay [5] and in assay [6] was over 100 µM throughout. The TGI in [7], in assay [8], in assay [9], in [10] and in assay [11] was over 100 µM throughout.
As to `O=C1/C(=C/c2ccco2)NC(=S)N1CN1CCCCC1`, the TGI in assay [2], in [3], in [4], in [5], in assay [7] and in assay [8] was over 100 µM throughout. Moreover, the TGI in [9], in [10] and in assay [11] was over 100 µM in each case.
With `COc1ccc(NC(=S)c2ccc(CN3CCCCC3)s2)cc1`, the TGI was 32.3 µM in [12]; 37.4 µM in assay [1]; 49.2 µM in assay [3]; 42.4 µM in [5]; over 100 µM in [6]; 32.5 µM in assay [7]. The TGI amounted to 33.3 µM in assay [8], 36.7 µM in [9], 31.5 µM in [10] and 62.2 µM in assay [11].
Consider `CO[C@](C(=O)OC[C@H]1[C@@H](COC(C)=O)[C@@H]2O[C@H]1c1cc3c(cc12)OCO3)(c1ccccc1)C(F)(F)F`, for which the TGI in assay [12] is 71.9 µM; in assay [1], 49.6 µM; in [2], 71.5 µM; in [3], 81.1 µM; in [4], over 100 µM; in [5], over 100 µM. Besides, the TGI in assay [7] was 17.2 µM; in assay [9], over 100 µM; in [10], over 100 µM; in [11], over 100 µM.
Take `Cc1cc(OC(=O)Nc2cccc3ccccc23)c(C(C)C)cc1C(=S)Nc1ccccc1`: the TGI in [12] turned out to be 38.8 µM; in [1], 47.1 µM; in assay [3], 30.4 µM; in assay [5] it was 43.3 µM; in assay [6], 36.9 µM; in [7], 29.1 µM. For the same molecule, the values for the TGI in [8], in assay [9] and in assay [11] were 28.7 µM, 33.3 µM and 42.2 µM, respectively.
Take `O=C1c2ccccc2-n2nnnc2C2CSCN12` (stereo unspecified): the TGI in [12], in assay [1], in assay [2], in assay [3], in [4] and in assay [5] was over 100 µM each time. For the same molecule, the TGI in assay [7], in assay [8], in [9], in assay [10] and in [11] was over 100 µM in each case.
Turning to `CCOC(=O)CCCSCCCC(=O)CCCSCCCC(=O)OCC`, the TGI in assay [12], in assay [1], in [2], in [3], in assay [4] and in assay [5] was over 100 µM each time. For the same molecule, the TGI in assay [6], in assay [7], in assay [8], in [9] and in [11] was over 100 µM throughout.
In the case of `C[C@]12[C@@H]3CC[C@H]1[C@@H](O)C(=O)N2CC3`, the TGI in assay [12], in assay [1], in assay [2], in assay [3], in assay [4] and in assay [5] was over 100 µM in each case. In addition, the TGI in [7], in [8], in assay [9], in assay [10] and in [11] was over 100 µM throughout.
